The source of these data is patent publication US9376423B2, “PKC-epsilon inhibitors” (The Regents of the University of California, priority 2010, dated 2016).

Like-named read-outs stand apart in the source and are kept apart here.

Type in all cases: biochemical
Experiment [1] addresses T1, PKCε (Homo sapiens, UniProt Q02156).
T1 sequence (Q02156 1-737): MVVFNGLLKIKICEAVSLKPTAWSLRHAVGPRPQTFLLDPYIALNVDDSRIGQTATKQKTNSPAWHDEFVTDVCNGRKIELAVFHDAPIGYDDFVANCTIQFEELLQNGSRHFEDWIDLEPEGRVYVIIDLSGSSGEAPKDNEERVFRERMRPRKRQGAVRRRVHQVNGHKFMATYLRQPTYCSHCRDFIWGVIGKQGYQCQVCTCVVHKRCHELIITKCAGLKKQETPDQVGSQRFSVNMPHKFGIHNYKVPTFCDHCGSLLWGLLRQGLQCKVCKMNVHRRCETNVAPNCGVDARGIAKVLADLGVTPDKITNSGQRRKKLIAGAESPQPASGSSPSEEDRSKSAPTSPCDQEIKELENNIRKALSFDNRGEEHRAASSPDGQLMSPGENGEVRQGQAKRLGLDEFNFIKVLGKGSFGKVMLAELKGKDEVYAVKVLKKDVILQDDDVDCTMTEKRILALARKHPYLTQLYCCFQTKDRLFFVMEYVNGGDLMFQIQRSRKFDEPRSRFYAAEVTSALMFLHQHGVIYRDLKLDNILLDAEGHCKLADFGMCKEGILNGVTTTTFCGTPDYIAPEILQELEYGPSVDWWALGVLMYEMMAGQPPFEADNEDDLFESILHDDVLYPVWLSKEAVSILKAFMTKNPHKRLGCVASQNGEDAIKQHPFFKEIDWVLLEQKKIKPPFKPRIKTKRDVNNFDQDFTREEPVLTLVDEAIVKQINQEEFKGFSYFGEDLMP
The experiment can be described thus: FRET based LANCE Ultra kinase assay. Here is the method:
Certain compounds of this invention were tested in the captioned assay.
A general note: TR-FRET usually uses a lanthanide donor and a delayed reading to cut background.

Experiment [2] concerns the target T1, PKCε. The experiment can be described thus: Primary PKCε phosphotransferase assay. Also on record: FLAG; made in house; host or cells: COS-7. As to the method:
The assay mixture can contain 2 ng FLAG-tagged human PKCε expressed and purified from COS-7 cells in 25 μl kinase buffer containing 20 mM Tris-HCl, pH 7.4, 0.25 mM EGTA, 0.1 mg/ml BSA, 0.72% TritonX-100, 10 mM MgCl2, 0.48 μg/μl L-α-phosphatidylserine (PS) and 0.107 μg/μl sn-1,2-dioleoylglecerol (DG) (Avanti Polar Lipids, Alabaster, Ala., USA), 2 μM K(Biotin)-[…], 2.5 μM ATP and 0.05 μCi [^32γ-P]ATP. After incubation at 27° C. for 90 min, the reaction is terminated by adding 12.5 μl of 7.5 M of guanidine hydrochloride. Eight microliters of reaction mixture is spotted onto a pre-cut streptavidin-coated SAM Biotin Capture membrane. […] The membrane is then air dried at room temperature for 60 min and radioactivity remaining on the membrane can be measured by liquid scintillation counting. Specific PKCε activity can then be calculated as the difference between cpms detected in the presence and absence of lipids (PS and DG). Maximal PKCε activity (positive control) can be detected in reactions lacking an inhibitor. Complete inhibition (negative control) can be measured in the presence of the general PKC inhibitor 5 μM bisindolylmaleimide I. The normalized percent inhibition (NPI) can be calculated at each concentration of inhibitor by the formula: […]
IC50 values can be calculated from normalized dose-response curves by nonlinear regression analysis. […]

For another experiment, the target named is T2, PKCγ (Homo sapiens, UniProt P05129).
T2 construct: purchased Invitrogen (Carlsbad, Calif., USA)
The experiment can be described thus: Inhibition of conventional PKCγ (Example 4). To be noted: 10 μM inhibitor; n = 3; read-out: Percent inhibition of PKC activity, PKCγ. An excerpt:
(§1) Compound selectivity for inhibiting PKCε and not other PKC isozymes or ROCK1 can be determined according to the following assay. Specificity counter screens can be performed against one member of each subclass of PKCs (conventional, novel and atypical).
(§2) For example, to measure inhibition of conventional PKCγ, novel PKCδ, and atypical PKCζ, the same kinase assay disclosed above for PKCε can be used with recombinant human PKCγ, PKCδ, or PKCζ purchased from Invitrogen (Carlsbad, Calif., USA) in place of PKCε, with 0.4 mM CaCl2 assay buffer for PKCγ.

The target of a further experiment is T3, PKCδ (Homo sapiens, UniProt Q05655).
T3 construct: purchased Invitrogen (Carlsbad, Calif., USA)
The experiment can be described thus: Inhibition of novel PKCδ (Example 4). To be noted: n = 3; for inhibition at 10 µM: 10 μM inhibitor, read-out: Percent inhibition of PKC activity, PKCδ; for IC50: ± SE, read-out: Log IC50 (M) PKCδ (converted).
Text: as §1, §2

The next experiment addresses T4, PKCθ (Homo sapiens, UniProt Q04759).
T4 construct: purchased Invitrogen P2996
The experiment can be described thus: Inhibition of novel PKCθ (Example 4). The settings on record: n = 3; for inhibition at 10 µM: 10 μM inhibitor, read-out: Percent inhibition of PKC activity, PKCθ; for IC50: ± SE, read-out: Log IC50 (M) PKCθ (converted). An excerpt:
Inhibition of PKC theta activity can be measured using the same primary phosphotransferase assay for PKCε except one substitutes recombinant human PKC theta purchased from Invitrogen for PKCε. PKC theta can also be assayed with a fluorescence polarization (FP) assay using the commercially available Protein Kinase C Assay Kit, Red, from Invitrogen (Product ID No P2941), essentially in accordance with the protocol supplied by the manufacturer. The substrate used is […] (MW 1561), which can be obtained from Invitrogen (Product ID No P2760). The isozyme PKC theta can be obtained from Invitrogen (Product ID No P2996).

The target in a further experiment is T5, PKCζ (Homo sapiens, UniProt Q05513).
T5 construct: purchased Invitrogen (Carlsbad, Calif., USA)
T5 sequence (Q05513 1-592): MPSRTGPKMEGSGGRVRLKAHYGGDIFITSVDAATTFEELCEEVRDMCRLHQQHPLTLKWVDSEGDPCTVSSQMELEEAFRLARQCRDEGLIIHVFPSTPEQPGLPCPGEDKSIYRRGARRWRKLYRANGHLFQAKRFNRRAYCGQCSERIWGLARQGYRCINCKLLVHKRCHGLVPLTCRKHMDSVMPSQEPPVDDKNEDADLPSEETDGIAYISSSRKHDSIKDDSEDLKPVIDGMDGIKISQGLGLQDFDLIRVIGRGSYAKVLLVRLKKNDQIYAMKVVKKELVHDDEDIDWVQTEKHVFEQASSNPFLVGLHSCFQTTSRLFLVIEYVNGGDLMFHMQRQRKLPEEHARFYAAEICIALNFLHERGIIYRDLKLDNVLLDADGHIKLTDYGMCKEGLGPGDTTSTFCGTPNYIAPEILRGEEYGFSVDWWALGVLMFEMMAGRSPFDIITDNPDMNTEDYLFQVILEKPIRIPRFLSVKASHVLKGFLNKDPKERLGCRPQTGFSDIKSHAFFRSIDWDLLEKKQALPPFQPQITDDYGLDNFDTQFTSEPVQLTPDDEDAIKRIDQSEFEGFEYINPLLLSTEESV
The experiment can be described thus: Inhibition of atypical PKCζ (Example 4). The settings on record: for activity against atypical PKCζ: 10 μM; for inhibition at 10 µM: 10 μM inhibitor, n = 3, read-out: Percent inhibition of PKC activity, PKCζ.
Text: as §1, §2

Experiment [3] concerns the target T1, PKCε. The experiment can be described thus: Inhibition of PKCε (Example 4). To be noted: for IC50: ± SE, read-out: Log IC50 (M) PKCε (converted).
Where [4] appears, read: selection criterion for Example 4, read-out: Ki for PKCε.

T3 sequence (Q05655 whole entry): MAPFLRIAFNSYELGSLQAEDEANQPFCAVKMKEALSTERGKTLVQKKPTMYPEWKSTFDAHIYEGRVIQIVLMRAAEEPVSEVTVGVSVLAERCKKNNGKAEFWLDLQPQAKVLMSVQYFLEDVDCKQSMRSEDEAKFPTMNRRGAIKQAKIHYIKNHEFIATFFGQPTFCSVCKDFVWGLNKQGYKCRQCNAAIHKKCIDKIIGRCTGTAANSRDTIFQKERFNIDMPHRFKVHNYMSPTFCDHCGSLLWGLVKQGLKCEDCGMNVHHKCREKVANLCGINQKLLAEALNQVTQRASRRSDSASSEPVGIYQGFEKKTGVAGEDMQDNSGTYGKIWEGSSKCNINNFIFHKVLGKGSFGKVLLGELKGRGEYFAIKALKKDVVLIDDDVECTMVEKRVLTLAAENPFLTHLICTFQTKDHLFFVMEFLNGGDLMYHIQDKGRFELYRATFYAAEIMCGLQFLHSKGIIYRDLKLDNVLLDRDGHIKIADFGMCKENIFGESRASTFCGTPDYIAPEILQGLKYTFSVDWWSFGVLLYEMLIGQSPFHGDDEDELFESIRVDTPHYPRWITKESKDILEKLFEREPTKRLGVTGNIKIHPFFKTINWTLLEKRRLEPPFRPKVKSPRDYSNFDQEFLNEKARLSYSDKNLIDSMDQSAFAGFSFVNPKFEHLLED
T4 sequence (Q04759 whole entry): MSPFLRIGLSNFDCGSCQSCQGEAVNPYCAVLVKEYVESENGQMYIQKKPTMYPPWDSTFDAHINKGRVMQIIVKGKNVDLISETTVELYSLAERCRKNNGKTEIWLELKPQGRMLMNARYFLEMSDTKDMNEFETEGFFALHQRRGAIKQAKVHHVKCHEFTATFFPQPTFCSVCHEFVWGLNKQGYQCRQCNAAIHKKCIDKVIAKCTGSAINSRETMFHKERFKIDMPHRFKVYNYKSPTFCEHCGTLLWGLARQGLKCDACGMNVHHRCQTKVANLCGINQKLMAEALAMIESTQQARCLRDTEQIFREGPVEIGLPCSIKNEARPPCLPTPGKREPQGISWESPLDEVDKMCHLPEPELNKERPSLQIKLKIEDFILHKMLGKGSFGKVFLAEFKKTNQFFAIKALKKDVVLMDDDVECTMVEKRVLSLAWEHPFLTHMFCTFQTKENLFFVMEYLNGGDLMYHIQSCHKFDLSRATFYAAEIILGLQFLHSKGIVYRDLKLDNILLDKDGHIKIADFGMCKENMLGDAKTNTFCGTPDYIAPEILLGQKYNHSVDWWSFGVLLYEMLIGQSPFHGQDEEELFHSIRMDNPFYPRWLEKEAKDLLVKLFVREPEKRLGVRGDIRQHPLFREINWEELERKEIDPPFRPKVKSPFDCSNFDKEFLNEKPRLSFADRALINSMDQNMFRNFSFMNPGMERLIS

The IC50 is the point on the concentration scale where inhibition reaches its midpoint. On to `NC(CC(=O)NCC1(c2ccc(Cl)cc2)CC1)[C@H]1CC[C@H](C(=O)Nc2ccncc2)CC1` (relative stereo) [Compound 2, trans-4-[1-Amino-2-[[[1-(4-chlorophenyl)cyclopropyl]methylamino]carbonyl]ethyl]-N-4-pyridinyl-cyclohexylcarboxamide], for which the figures for the IC50 at PKCε [1] and at PKCε [2] were 3240 nM and 1690 nM, respectively.
Take `NC(CNC(=O)C1(c2ccc(F)cc2)CC1)[C@H]1CC[C@H](C(=O)Nc2ccncc2)CC1` (stereo partly shown) [Compound 3]: on PKCε [1] (read-out: Log IC50 (converted)), the IC50 was 146 nM.
For `NC(CNC(=O)C1(c2ccc(F)cc2Cl)CCCC1)[C@H]1CC[C@H](C(=O)Nc2ccncc2)CC1` (stereo partly shown) [Compound 4], the IC50 at PKCε [1] (read-out: Log IC50 (converted)) was 121 nM.
The inhibition is the percentage by which the read-out fell short of the control. Broadly, the Ki is the equilibrium dissociation constant of an inhibitor or competing ligand from its target. Take `Cl.NC(CNC(=O)C1(c2ccc(F)cc2)CCCC1)[C@H]1CC[C@H](C(=O)Nc2ccncc2)CC1` (stereo partly shown) [Compound 5]: the IC50 is 42.6 nM at PKCε [1] (read-out: IC50); 42.7 nM on PKCε [1] (read-out: Log IC50 (converted)); 5.25e-07 M at PKCδ; 3.63e-07 M on PKCθ; 4.27e-08 M on PKCε [3] (n = 3). Further, the inhibition at 10 µM at PKCγ was found to be 17 ± 1.3%; at PKCδ, 96.4 ± 1%; on PKCθ, 94.4 ± 1%; on PKCζ, 6.3 ± 2.1%. In addition, the Ki was 125 nM on PKCδ; 86.9 nM on PKCθ; 12.8 nM on PKCε [3] (n = 3, read-out: Ki (nM) PKCε); below 20 nM on PKCε [3] (setting [4]). In addition, the “activity against atypical PKCζ” value on PKCζ is listed as “almost no activity”.
As to `NC(CNC(=O)C1(c2ccc(F)c(F)c2)CC1)[C@H]1CC[C@H](C(=O)Nc2ccncc2)CC1` (stereo partly shown) [Compound 6], the IC50 on PKCε [1] (read-out: IC50) was 52.2 nM.
In the case of `CC(C)(C(=O)NCC(N)[C@H]1CC[C@H](C(=O)Nc2ccncc2)CC1)c1cccs1` (stereo partly shown) [Compound 7], on PKCε [1] (read-out: Log IC50 (converted)), the IC50 is 280 nM.
For the compound `NC(CNC(=O)C1CCc2cc(Cl)ccc21)[C@H]1CC[C@H](C(=O)Nc2ccncc2)CC1` (stereo partly shown) [Compound 8], at PKCε [1] (read-out: Log IC50 (converted)), the half-inhibitory concentration (IC50) was 359 nM.
With `CC(C)(C(=O)NCC(N)[C@H]1CC[C@H](C(=O)Nc2ccncc2)CC1)c1ccc(Cl)cc1.Cl` (stereo partly shown) [Compound 9], the IC50 is 40 nM at PKCε [1] (read-out: Log IC50 (converted)), 2.69e-07 M at PKCδ, 2.75e-07 M at PKCθ and 3.8e-08 M at PKCε [3] (n = 3). For the same compound, the inhibition at 10 µM is 30 ± 3.3% on PKCγ, 98.9 ± 0.6% at PKCδ, 99.6 ± 1.3% on PKCθ and 8.9 ± 1.8% at PKCζ. The inhibition constant (Ki) was 66.5 nM at PKCδ; 67 nM on PKCθ; 9.3 nM on PKCε [3] (n = 3, read-out: Ki (nM) PKCε); below 20 nM at PKCε [3] (setting [4]). The “activity against atypical PKCζ” value on PKCζ is “almost no activity”.
As to `NC(C(=O)NC1COc2ccccc21)[C@H]1CC[C@H](C(=O)Nc2ccncc2)CC1` (stereo partly shown) [Compound 10], the IC50 on PKCε [1] (read-out: Log IC50 (converted)) is 2020 nM.
For `NC(C(=O)NC1CCCc2ccccc21)[C@H]1CC[C@H](C(=O)Nc2ccncc2)CC1` (stereo partly shown) [Compound 11], the IC50 on PKCε [1] (read-out: Log IC50 (converted)) was 3090 nM.
The same measure, in the same setting: as for `NC(C(=O)NCc1ccc(F)cc1)[C@H]1CC[C@H](C(=O)Nc2ccncc2)CC1` (stereo partly shown) [Compound 12], the figure is 2370 nM.
